Read-outs that look alike come from different tables or passages of the source.
Columns and labels:
HCT116 cells = experiment: Antiproliferation assay, Cell Titer Glo, 72 hours; type: cell-based
Method: HCT116 cells were plated in 384-well plates at 750 cells/well in 50 ul fresh media (McCoy's 5A+10% FBS+1% Penn/Strep) and treated with 0.1 μl candidate compounds in four-fold dilution series using the Janus pinner. Cells were incubated with compounds for 72 hours in 37° C. 5% CO2. Anti-proliferative effects of these compounds were assessed 72 hours after compound addition using Cell Titer Glo (Promega cat #G7571) as described in product manual by luminescence measurements using an Envision platereader. All proliferation assays were performed in biological quadruplicate. IC50 values were determined using a non-linear regression curve fit in GraphPad Prism 6.

Cdk14/CycY = Cdk14/CycY (Homo sapiens (Human), UniProt O94921); experiment: Lanthascreen Eu kinase binding assay for Cdk14/CycY with 30 minute pre-incubation; conditions: 30 minute pre-incubation of kinase with compound; read-out: IC50 CDK14 binding by Lanthascreen
Method: Lanthascreen Eu kinase binding assays were conducted for Cdk14/CycY largely as performed in the commercial assay service by Life Technologies, but included a 30 minute pre-incubation step of the kinase with candidate compounds to facilitate covalent bond formation.

Chain of Cdk14/CycY (O94921 whole entry): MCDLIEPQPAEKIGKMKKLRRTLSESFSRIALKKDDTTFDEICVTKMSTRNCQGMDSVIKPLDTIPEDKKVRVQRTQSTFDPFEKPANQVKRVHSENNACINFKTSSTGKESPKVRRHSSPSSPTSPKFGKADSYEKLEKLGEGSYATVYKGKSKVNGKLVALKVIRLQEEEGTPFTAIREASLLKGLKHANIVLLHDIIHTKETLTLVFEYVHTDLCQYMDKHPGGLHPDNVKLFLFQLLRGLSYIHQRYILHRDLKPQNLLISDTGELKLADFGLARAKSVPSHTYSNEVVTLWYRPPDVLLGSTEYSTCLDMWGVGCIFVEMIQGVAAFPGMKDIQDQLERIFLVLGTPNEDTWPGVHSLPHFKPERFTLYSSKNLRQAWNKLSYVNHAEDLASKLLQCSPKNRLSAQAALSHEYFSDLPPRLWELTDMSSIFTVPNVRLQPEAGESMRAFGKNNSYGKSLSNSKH
Chain of Cdk14/CycY (Q8ND76 whole entry partner): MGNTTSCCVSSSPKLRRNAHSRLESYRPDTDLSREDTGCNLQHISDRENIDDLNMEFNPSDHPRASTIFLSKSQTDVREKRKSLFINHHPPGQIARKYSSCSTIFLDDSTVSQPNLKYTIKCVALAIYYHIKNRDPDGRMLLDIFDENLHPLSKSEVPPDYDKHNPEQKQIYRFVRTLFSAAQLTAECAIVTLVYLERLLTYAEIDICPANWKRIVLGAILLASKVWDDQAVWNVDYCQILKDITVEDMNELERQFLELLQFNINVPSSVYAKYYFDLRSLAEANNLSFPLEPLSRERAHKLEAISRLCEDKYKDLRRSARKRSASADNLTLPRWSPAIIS

| IC50 (HCT116 cells; Homo sapiens, HCT-116, 72 h) | IC50 (Cdk14/CycY) | IC50 (HCT116 cells) | SMILES |
| --- | --- | --- | --- |
| 437 nM | 223 nM | – | CN(C)C/C=C/C(=O)Nc1cccc(CN2CCC(NC(=O)c3n[nH]cc3NC(=O)c3c(F)cccc3F)CC2)c1 [FMF-04-160-2, (E)-4-(2,6-difluorobenzamido)-N-(1-(3-(4-(dimethylamino)but-2-enamido)benzyl)piperidin-4-yl)-1H-pyrazole-3-carboxamide] |
| 3000 nM | > 10000 nM | – | C=CC(=O)Nc1ccc(S(=O)(=O)N2CC[C@@H](NC(=O)c3n[nH]cc3NC(=O)c3c(Cl)cccc3Cl)C2)cc1 [FMF-05-066-1, (R)—N-(1-((4-acrylamidophenyl)sulfonyl)pyrrolidin-3-yl)-4-(2,6-dichlorobenzamido)-1H-pyrazole-3-carboxamide] |
| > 10000 nM | 836 nM | – | C=CC(=O)Nc1cccc(S(=O)(=O)N2CCC[C@@H](NC(=O)c3n[nH]cc3NC(=O)c3c(Cl)cccc3Cl)C2)c1 [FMF-04-057-1, (R)—N-(1-((3-acrylamidophenyl)sulfonyl)piperidin-3-yl)-4-(2,6-dichlorobenzamido)-1H-pyrazole-3-carboxamide] |
| 737 nM | 479 nM | – | C=CC(=O)N1CCC[C@H](NC(=O)c2n[nH]cc2NC(=O)c2c(Cl)cccc2Cl)C1 [FMF-03-184-1, (S)—N-(1-acryloylpiperidin-3-yl)-4-(2,6-dichlorobenzamido)-1H-pyrazole-3-carboxamide] |
| 169 nM | > 1000 nM | – | C=CC(=O)Nc1cccc(NC(=O)c2n[nH]cc2NC(=O)c2c(Cl)cccc2Cl)c1 [FMF-03-188-1, N-(3-acrylamidophenyl)-4-(2,6-dichlorobenzamido)-1H-pyrazole-3-carboxamide] |
| 563 nM | > 1000 nM | – | C=CC(=O)Nc1cccc(S(=O)(=O)N2CCC(NC(=O)c3nscc3NC(=O)c3c(Cl)cccc3Cl)CC2)c1 [FMF-04-089-1, N-(1-((3-acrylamidophenyl)sulfonyl)piperidin-4-yl)-4-(2,6-dichlorobenzamido)isothiazole-3-carboxamide] |
| 31 nM | 308 nM | – | C=CC(=O)Nc1cccc(C(=O)Nc2cccc(NC(=O)c3n[nH]cc3NC(=O)c3c(Cl)cccc3Cl)c2)c1 [FMF-04-011-1, N-(3-(3-acrylamidobenzamido)phenyl)-4-(2,6-dichlorobenzamido)-1H-pyrazole-3-carboxamide] |
| > 10000 nM | > 1000 nM | – | C=CC(=O)Nc1ccc(S(=O)(=O)N2CCC[C@@H](NC(=O)c3n[nH]cc3NC(=O)c3c(Cl)cccc3Cl)C2)cc1 [FMF-04-056-1, (R)—N-(1-((4-acrylamidophenyl)sulfonyl)piperidin-3-yl)-4-(2,6-dichlorobenzamido)-1H-pyrazole-3-carboxamide] |
| 6 nM | 609 nM | – | C=CC(=O)Nc1ccc(C(=O)Nc2cccc(NC(=O)c3n[nH]cc3NC(=O)c3c(Cl)cccc3Cl)c2)cc1 [FMF-03-203-1, N-(3-(4-acrylamidobenzamido)phenyl)-4-(2,6-dichlorobenzamido)-1H-pyrazole-3-carboxamide] |
| 382 nM | 315 nM | – | C=CC(=O)Nc1cccc(S(=O)(=O)N2CCC(NC(=O)c3n[nH]cc3NC(=O)c3ccccc3)CC2)c1 [FMF-05-027-1, N-(1-((3-acrylamidophenyl)sulfonyl)piperidin-4-yl)-4-benzamido-1H-pyrazole-3-carboxamide] |
| 39 nM | 569 nM | – | C=CC(=O)N1CCC[C@@H](NC(=O)c2n[nH]cc2NC(=O)c2c(Cl)cccc2Cl)C1 [FMF-03-183-1, (R)—N-(1-acryloylpiperidin-3-yl)-4-(2,6-dichlorobenzamido)-1H-pyrazole-3-carboxamide] |
| 30 nM | 154 nM | – | C=CC(=O)Nc1ccc(N2CCC(NC(=O)c3n[nH]cc3NC(=O)c3c(Cl)cccc3Cl)CC2)cc1 [FMF-05-073-1, N-(1-(4-acrylamidophenyl)piperidin-4-yl)-4-(2,6-dichlorobenzamido)-1H-pyrazole-3-carboxamide] |
| 1340 nM | 976 nM | – | CN(C)C/C=C/C(=O)N1CCC[C@H](NC(=O)c2n[nH]cc2NC(=O)c2c(Cl)cccc2Cl)C1 [FMF-03-184-2, (S,E)-4-(2,6-dichlorobenzamido)-N-(1-(4-(dimethylamino)but-2-enoyl)piperidin-3-yl)-1H-pyrazole-3-carboxamide] |
| 4040 nM | > 1000 nM | – | C=CC(=O)Nc1cccc(C(=O)N2CCC[C@@H](NC(=O)c3n[nH]cc3NC(=O)c3c(Cl)cccc3Cl)C2)c1 [FMF-04-059-1, (R)—N-(1-(3-acrylamidobenzoyl)piperidin-3-yl)-4-(2,6-dichlorobenzamido)-1H-pyrazole-3-carboxamide] |
| > 10000 nM | 116 nM | – | CN(C)C/C=C/C(=O)Nc1ccc(N2CC[C@H](NC(=O)c3n[nH]cc3NC(=O)c3c(Cl)cccc3Cl)C2)cc1 [FMF-05-074-2, (S,E)-4-(2,6-dichlorobenzamido)-N-(1-(4-(4-(dimethylamino)but-2-enamido)phenyl)pyrrolidin-3-yl)-1H-pyrazole-3-carboxamide] |
| 31 nM | 572 nM | – | C=CC(=O)Nc1ccc(CN2CC[C@H](NC(=O)c3n[nH]cc3NC(=O)c3c(Cl)cccc3Cl)C2)cc1 [FMF-05-070-1, (S)—N-(1-(4-acrylamidobenzyl)pyrrolidin-3-yl)-4-(2,6-dichlorobenzamido)-1H-pyrazole-3-carboxamide] |
| – | 1100 nM | 22 nM | C=CC(=O)Nc1cccc(N2CC[C@@H](NC(=O)c3n[nH]cc3NC(=O)c3c(Cl)cccc3Cl)C2)c1 [FMF-05-087-1, (R)—N-(1-(3-acrylamidophenyl)pyrrolidin-3-yl)-4-(2,6-dichlorobenzamido)-1H-pyrazole-3-carboxamide] |
| 714 nM | 738 nM | – | CN(C)C/C=C/C(=O)Nc1ccc(N2CC[C@@H](NC(=O)c3n[nH]cc3NC(=O)c3c(Cl)cccc3Cl)C2)cc1 [FMF-05-075-2, (R,E)-4-(2,6-dichlorobenzamido)-N-(1-(4-(4-(dimethylamino)but-2-enamido)phenyl)pyrrolidin-3-yl)-1H-pyrazole-3-carboxamide] |
| > 10000 nM | > 1000 nM | – | CN(C)C/C=C/C(=O)Nc1cccc(C(=O)N2CCC[C@@H](NC(=O)c3n[nH]cc3NC(=O)c3c(Cl)cccc3Cl)C2)c1 [FMF-04-059-2, (R,E)-4-(2,6-dichlorobenzamido)-N-(1-(3-(4-(dimethylamino)but-2-enamido)benzoyl)piperidin-3-yl)-1H-pyrazole-3-carboxamide] |
| 42 nM | 126 nM | – | C=CC(=O)Nc1ccc(C(=O)N2CCC(NC(=O)c3n[nH]cc3NC(=O)c3c(Cl)cccc3Cl)CC2)cc1 [FMF-03-186-1, N-(1-(4-acrylamidobenzoyl)piperidin-4-yl)-4-(2,6-dichlorobenzamido)-1H-pyrazole-3-carboxamide] |
| 64 nM | 267 nM | – | C=CC(=O)Nc1ccc(N2CC[C@@H](NC(=O)c3n[nH]cc3NC(=O)c3c(Cl)cccc3Cl)C2)cc1 [FMF-05-075-1, (R)—N-(1-(4-acrylamidophenyl)pyrrolidin-3-yl)-4-(2,6-dichlorobenzamido)-1H-pyrazole-3-carboxamide] |
| 485 nM | 77 nM | – | CN(C)C/C=C/C(=O)Nc1cccc(C(=O)N2CCC(NC(=O)c3n[nH]cc3NC(=O)c3c(Cl)cccc3Cl)CC2)c1 [FMF-03-196-2, (E)-4-(2,6-dichlorobenzamido)-N-(1-(3-(4-(dimethylamino)but-2-enamido)benzoyl)piperidin-4-yl)-1H-pyrazole-3-carboxamide] |
| < 1 nM | 257 nM | – | C=CC(=O)Nc1ccc(CN2CC[C@@H](NC(=O)c3n[nH]cc3NC(=O)c3c(Cl)cccc3Cl)C2)cc1 [FMF-05-072-1, (R)—N-(1-(4-acrylamidobenzyl)pyrrolidin-3-yl)-4-(2,6-dichlorobenzamido)-1H-pyrazole-3-carboxamide] |
| 157 nM | 148 nM | – | CN(C)C/C=C/C(=O)N1CCC[C@@H](NC(=O)c2n[nH]cc2NC(=O)c2c(Cl)cccc2Cl)C1 [FMF-03-183-2, (R,E)-4-(2,6-dichlorobenzamido)-N-(1-(4-(dimethylamino)but-2-enoyl)piperidin-3-yl)-1H-pyrazole-3-carboxamide] |
| 366 nM | 41 nM | – | CN(C)C/C=C/C(=O)Nc1cccc(C(=O)Nc2cccc(NC(=O)c3n[nH]cc3NC(=O)c3c(Cl)cccc3Cl)c2)c1 [FMF-04-196-1, (E)-4-(2,6-dichlorobenzamido)-N-(3-(3-(4-(dimethylamino)but-2-enamido)benzamido)phenyl)-1H-pyrazole-3-carboxamide] |
| 17 nM | > 1000 nM | – | C=CC(=O)Nc1ccc(NC(=O)c2n[nH]cc2NC(=O)c2c(Cl)cccc2Cl)cc1 [FMF-03-182-1, N-(4-acrylamidophenyl)-4-(2,6-dichlorobenzamido)-1H-pyrazole-3-carboxamide] |
| 2420 nM | > 1000 nM | – | C=CC(=O)Nc1cccc(S(=O)(=O)N2CCC(NC(=O)c3c(NC(=O)c4c(Cl)cccc4Cl)cnn3C)CC2)c1 [FMF-04-120-1, N-(1-((3-acrylamidophenyl)sulfonyl)piperidin-4-yl)-4-(2,6-dichlorobenzamido)-1-methyl-1H-pyrazole-5-carboxamide] |
| 723 nM | 88 nM | – | CN(C)C/C=C/C(=O)Nc1cccc(NC(=O)c2n[nH]cc2NC(=O)c2c(Cl)cccc2Cl)c1 [FMF-03-188-2, (E)-4-(2,6-dichlorobenzamido)-N-(3-(4-(dimethylamino)but-2-enamido)phenyl)-1H-pyrazole-3-carboxamide] |
